Measured values taken from patent US11795159B2 (priority 2021, dated 2023).
pIC50: −log10 of the molar value. Like-named read-outs stand apart in the source and are kept apart here.

How the values were obtained:
SARS-CoV-2 3CLpro = SARS-CoV-2 3CLpro (Severe acute respiratory syndrome coronavirus 2 (2019-nCoV) (SARS-CoV-2), UniProt P0DTD1); assay: biochemical
SARS-CoV-2 = assay: microbe, parasite or virus in culture; assay type: cell-based; details: Severe acute respiratory syndrome coronavirus 2, 72 h, read-out: ID50 (Antiviral Data)
[1] = IC50 (SARS-CoV-2 3CLpro Inhibition)
[2] = read-out: IC50 (SARS-CoV-2 3CLpro Inhibition)

Row | Compound | pIC50 (SARS-CoV-2 3CLpro; [1]) | pIC50 (SARS-CoV-2) | pIC50 (SARS-CoV-2 3CLpro; [2])
1 | C/C=C(\C)C(=O)N1CCC[C@@H]1C(=O)N(c1ccc(C(C)(C)C)cc1)C(C(=O)NC(C)(C)C)c1cccnc1 (stereo partly drawn) [Compound 6] | 4.00 to 5.00 | – | –
2 | C/C=C(\C)C(=O)N1CCCC1C(=O)N(c1ccc(C(C)(C)C)cc1)C(C(=O)NC(C)(C)C)c1cccnc1 (stereo not drawn) [Compound 3] | < 4.00 | < 4.00 | –
3 | C/C=C/C(=O)N1CCCC1C(=O)N(c1ccc(C(C)(C)C)cc1)C(C(=O)NC(C)(C)C)c1cccnc1 (stereo not drawn) [Compound 8] | 4.00 to 5.00 | – | –
4 | C=CC(=O)N1CCC(C(=O)N(c2ccc(C(C)(C)C)cc2)C(C(=O)NC(C)(C)C)c2cccnc2)C1 (stereo not drawn) [Compound 9] | 4.00 to 5.00 | < 4.00 | –
5 | C=CC(=O)N1CCCC1C(=O)N(c1ccc(C(C)(C)C)cc1)C(C(=O)NC(C)(C)C)c1cccnc1 (stereo not drawn) [Compound 12] | < 4.00 | < 4.00 | –
6 | C=CS(=O)(=O)N1CC[C@@H](C(=O)N(c2ccc(C(C)(C)C)cc2)C(C(=O)NC(C)(C)C)c2cccnc2)C1 (stereo partly drawn) [Compound 13] | < 4.00 | < 4.00 | –
7 | C=CS(=O)(=O)N1CC[C@@H](C(=O)N(c2ccc(C(C)(C)C)cc2)C(C(=O)NC(C)(C)C)c2cccnc2)C1 (stereo partly drawn) [Compound 14] | – | – | < 4.00
8 | C=CS(=O)(=O)N1CCCC1C(=O)N(c1ccc(C(C)(C)C)cc1)C(C(=O)NC(C)(C)C)c1cccnc1 (stereo not drawn) [Compound 11] | < 4.00 | < 4.00 | –
9 | C=C(C)C(=O)N1CCCC1C(=O)N(c1ccc(C(C)(C)C)cc1)C(C(=O)NC(C)(C)C)c1cccnc1 (stereo not drawn) [Compound 2] | < 4.00 | < 4.00 | –
10 | C=CC(=O)N1CCC(F)(F)CC1C(=O)N(c1ccc(C(C)(C)C)cc1)C(C(=O)NC(C)(C)C)c1cccnc1 (stereo not drawn) [Compound 15] | < 4.00 | < 4.00 | –
11 | C=C(C)C(=O)N1CCCC1C(=O)N(c1ccc(C(C)(C)C)cc1)C(C(=O)NC(C)(C)C)c1cccnc1 (stereo not drawn) [Compound 4] | – | – | < 4.00
12 | C/C=C/C(=O)N1CCCC1C(=O)N(c1ccc(C(C)(C)C)cc1)C(C(=O)NC(C)(C)C)c1cccnc1 (stereo not drawn) [Compound 7] | 5.00 to 6.00 | < 4.00 | –
13 | CCC(=O)N1CCCC1C(=O)N(c1ccc(C(C)(C)C)cc1)C(C(=O)NC(C)(C)C)c1cccnc1 (stereo not drawn) [Compound 5] | < 4.00 | < 4.00 | –
14 | C=CC(=O)N1CC[C@@H](C(=O)N(c2ccc(C(C)(C)C)cc2)C(C(=O)NC(C)(C)C)c2cccnc2)C1 (stereo partly drawn) [Compound 10] | 4.00 to 5.00 | – | –
15 | C=CC(=O)N1CCCC1C(=O)N(c1ccc(C(C)(C)C)cc1)C(C(=O)NC(C)(C)C)c1cccnc1 (stereo not drawn) [Compound 1] | – | – | < 4.00
